The record followed here is patent US11065253B2, “Arylquinazolines” (Merck Patent GmbH, priority 2013, dated 2021).

In one assay the test system is phospho-serine 2056 DNA-PK in HCT116 cells. Briefly: DNA-PK phosphorylation at serine 2056 (cellular), ELISA in bleomycin-treated HCT116 cells. In kind it is cell-based. The following applies: Homo sapiens, HCT-116, 6 h, cellular; HCT116 cells, 10 μM bleomycin, six hours; read-out: IC50 pDNA-PK. As to the method: HCT116 cells were cultivated at 37° C. and 10% CO2 in MEM alpha medium with 10% of foetal calf serum and 2 mM glutamine. The cells were detached from the base of the culture vessels with the aid of trypsin/EDTA, centrifuged off in centrifuge tubes, taken up in fresh medium, and the cell density was determined. 100,000 cells were sown in 1 ml of culture medium per cavity of a 24-well cell culture plate and cultivated overnight. Next day, 10 μM bleomycin (DNA intercalator and inductor of DNA double-strand breaks) and test substances in fresh culture medium were added to the cells, and these were cultivated for a further six hours. […] The 96-well ELISA plates were subsequently treated with a detection antibody (Abcam ab79444: total DNA-PK) and a streptavidin-HRP conjugate. The development of the enzymatic reaction was carried out with the aid of a chemiluminescent reagent, the chemiluminescence was measured with the aid of a Mithras LB940. The signals with the phospho-DNA-PK-specific antibody were standardised to the signal with the antibody against the total protein DNA-PKc. […] The DMSO control was used as blank.
Take `COc1cncnc1C(O)c1ccc(F)c(-c2ncnc3cc(N4CCOCC4)ccc23)c1` (stereo not shown) [Example 87, [4-Fluoro-3-(7-morpholin-4-yl-quinazolin-4-yl)-phenyl]-(5-methoxy-pyrimidin-4-yl)-methanol]: the IC50 was under 0.5 µM.

As to `Cn1nccc1C(O)c1ccc(F)c(-c2nc(Cl)nc3cc(N4CCOCC4)ccc23)c1` (stereo not shown) [Example 214, [3-(2-Chloro-7-morpholin-4-yl-quinazolin-4-yl)-4-fluoro-phenyl]-(2-methyl-2H-pyrazol-3-yl)-methanol], the IC50 lay in the range of 10 to 30 µM.

With `OC(c1ccc(F)c(-c2ncnc3cc(N4CCOCC4)ccc23)c1)c1cccnn1` (stereo not shown) [Example 65, [4-Fluoro-3-(7-morpholin-4-yl-quinazolin-4-yl)phenyl]-pyridazin-3-ylmethanol], the IC50 lay within 0.5 to 5 µM.

Still in this assay, the particulars now being: Homo sapiens, HCT-116, cellular DNA-PK phosphorylation at serine 2056, HCT116 cells; read-out: IC50 pDNA-PK.
For the compound `OC(c1cc(-c2ncnc3cc(N4CCOCC4)ccc23)c(F)cc1Cl)c1ncnc2ccoc12` (stereo not shown) [Example 440, [2-Chloro-4-fluoro-5-(7-morpholin-4-yl-quinazolin-4-yl)-phenyl]furo[3,2-d}-pyrimidin-4-yl-methanol], the 50% inhibitory concentration (IC50) is under 0.5 µM.

With `Cc1nccnc1C(O)c1cc(-c2ncnc3cc(N4CCOCC4)ccc23)ccc1F` (stereo not shown) [Example 393, [2-Fluoro-5-(7-morpholin-4-yl-quinazolin-4-yl)-phenyl]-(3-methyl-pyrazin-2-yl)-methanol], the IC50 fell in the range of 5 to 10 µM.

As to `COc1ccc(C(O)c2cc(-c3ncnc4cc(N5CCOCC5)ccc34)ccc2Cl)nn1` (stereo not shown) [Example 458, [2-Chloro-5-(7-morpholin-4-yl-quinazolin-4-yl)-phenyl]-(6-methoxy-pyridazin-3-yl)-methanol], the IC50 is under 0.5 µM.

As for `OC(c1cc(-c2ncnc3cc(N4CCOCC4)ccc23)ccc1Cl)c1ncnc2sccc12` (stereo not shown) [Example 430, [2-Chloro-5-(7-morpholin-4-yl-quinazolin-4-yl)-phenyl]thieno[2,3-d}-pyrimidin-4-yl-methanol], the half-inhibitory concentration (IC50) is under 0.5 µM.

Still in this assay, the particulars now being: Homo sapiens, HCT-116, phospho-serine 2056 DNA-PK, bleomycin-treated HCT116 cells; class symbols A-D; read-out: IC50 pDNA-PK.
On to `COc1ccc(C(O)c2cc(-c3ncnc4cc(N5CCOCC5)ccc34)c(F)cc2F)cn1` (stereo not shown) [Example 221, [2,4-Difluoro-5-(7-morpholin-4-yl-quinazolin-4-yl)-phenyl]-(6-methoxy-pyridin-3-yl)methanol], for which the IC50 was in the range of 0.5 to 5 µM.

For the compound `OCc1csc([C@H](O)c2cc(-c3ncnc4cc(N5CCOCC5)ccc34)c(F)cc2Cl)n1` [Example 186, (R)-[2-Chloro-4-fluoro-5-(7-morpholin-4-yl-quinazolin-4-yl)-phenyl]-(4-hydroxymethyl-thiazol-2-yl)-methanol], the IC50 lay in the range of 5 to 10 µM.

On to `OCc1csc(C(O)c2cc(-c3ncnc4cc(N5C6CCC5COC6)ccc34)c(F)cc2Cl)n1` (stereo not shown) [Example 187, {2-Chloro-4-fluoro-5-[7-(3-oxa-8-aza-bicyclo[3.2.1]oct-8-yl)quinazolin-4-yl]-phenyl}-(4-hydroxy-methylthiazol-2-yl)-methanol], for which the IC50 is 10 to 30 µM.

For the compound `OC(c1cccc(-c2ncnc3cc(N4CCOCC4)ccc23)c1)(c1nccs1)C(F)(F)F` (stereo not shown) [Example 159, 2,2,2-Trifluoro-1-[3-(7-morpholin-4-yl-quinazolin-4-yl)-phenyl]-1-thiazol-2-ylethanol], the IC50 lay in the range of 10 to 30 µM.

Take `COCCOc1ccc(C(O)c2cc(-c3ncnc4cc(N5CCOCC5)ccc34)c(F)cc2Cl)nn1` (stereo not shown) [Example 112, [2-Chloro-4-fluoro-5-(7-morpholin-4-yl-quinazolin-4-yl)-phenyl]-[6-(2-methoxyethoxy)-pyridazin-3-yl]-methanol]: the IC50 was 0.5 to 5 µM.

Regarding `CC(C)n1cc(C(O)c2ccc(F)c(-c3ncnc4cc(N5CCOCC5)ccc34)c2)cn1` (stereo not shown) [Example 197, [4-Fluoro-3-(7-morpholin-4-yl-quinazolin-4-yl)-phenyl]-(1-isopropyl-1 H-pyrazol-4-yl)-methanol], the IC50 was in the range of 5 to 10 µM.

Staying with this assay, now noted: Homo sapiens, HCT-116, phospho-serine 2056 DNA-PK, bleomycin-treated HCT116 cells; read-out: IC50 pDNA-PK.
Take `O=c1[nH]nc(C(O)c2ccc(F)c(-c3ncnc4cc(N5CCOCC5)ccc34)c2)c2sccc12` (stereo not shown) [Example 337, 7-[[4-Fluoro-3-(7-morpholino-quinazolin-4-yl)-phenyl]hydroxy-methyl]-5H-thieno-[2,3-d}pyridazin-4-one]: the IC50 was 0.5 to 5 µM.

On to `COc1nnccc1C(C(N)=O)c1cc(-c2ncnc3cc(N4CCOCC4)ccc23)c(F)cc1Cl` (stereo not shown) [Example 307, 2-[2-Chloro-4-fluoro-5-(7-morpholin-4-yl-quinazolin-4-yl)-phenyl]-2-(3-methoxypyridazin-4-yl)acetamide], for which the IC50 lay in the range of 5 to 10 µM.

With `OC(c1ccc(F)c(-c2ncnc3cc(N4CCOCC4)ccc23)c1)c1ncnn2cccc12` (stereo not shown) [Example 345, [4-Fluoro-3-(7-morpholin-4-yl-quinazolin-4-yl)-phenyl]pyrrolo[2,1-f]-[1,2,4]triazin-4-yl-methanol], the IC50 is under 0.5 µM.

For the compound `NC(=O)C(c1ccc(F)c(-c2ncnc3cc(N4CCOCC4)ccc23)c1)c1nnc(Cl)c2sccc12` (stereo not shown) [Example 291, 2-(7-Chlorothieno-[2,3-d}pyridazin-4-yl)-2-[4-fluoro-3-(7-morpholin-4-yl-quinazolin-4-yl)-phenyl]acetamide], the IC50 is 5 to 10 µM.

For the compound `OC(c1cc(-c2ncnc3cc(N4CCOCC4)ccc23)ccc1Cl)c1ncnn2cccc12` (stereo not shown) [Example 362, [2-Chloro-5-(7-morpholin-4-yl-quinazolin-4-yl)-phenyl]pyrrolo[2,1-f]-[1,2,4]triazin-4-yl-methanol], the IC50 fell in the range of 0.5 to 5 µM.

On to `[2H]c1c(N2CCOCC2)cc2ncnc(-c3cc(C(O)c4ccc(OC)nn4)c(Cl)cc3F)c2c1[2H]` (stereo not shown) [Example 225, [2-Chloro-5-(5,6-dideuterio-7-morpholino-quinazolin-4-yl)-4-fluorophenyl]-(6-methoxypyridazin-3-yl)methanol], for which the IC50 is under 0.5 µM.

In the case of `COc1ccc(C(C(N)=O)c2cc(-c3ncnc4cc(N5CCOCC5)ccc34)c(F)cc2F)nn1` (stereo not shown) [Example 306, 2-[2,4-Difluoro-5-(7-morpholin-4-yl-quinazolin-4-yl)-phenyl]-2-(6-methoxy-pyridazin-3-yl)acetamide], the IC50 fell in the range of 10 to 30 µM.

Still in this assay, the particulars now being: cellular DNA-PK phosphorylation at serine 2056, HCT116 cells; read-out: IC50 pDNA-PK.
Consider `OC(c1cc(-c2ncnc3cc(N4CCOCC4)ccc23)c(F)cc1F)c1ncnc2ccoc12` (stereo not shown) [Example 445, [2,4-Difluoro-5-(7-morpholin-4-yl-quinazolin-4-yl)-phenyl]furo[3,2-d}-pyrimidin-4-yl-methanol], for which the half-inhibitory concentration (IC50) is under 0.5 µM.

Take `Cn1c(C(O)c2cc(-c3ncnc4cc(N5CCOCC5)ccc34)c(F)cc2Cl)cccc1=O` (stereo not shown) [Example 383, 6-{[2-Chloro-4-fluoro-5-(7-morpholin-4-yl-quinazolin-4-yl)-phenyl]hydroxy-methyl}-1-methyl-1H-pyridin-2-one (Ena 1)]: the 50% inhibitory concentration (IC50) was under 0.5 µM.

On to `OC(c1cc(-c2ncnc3cc(N4CCOCC4)ccc23)c(F)cc1F)c1ncnc2ccoc12` (stereo not shown) [Example 446, [2,4-Difluoro-5-(7-morpholin-4-yl-quinazolin-4-yl)-phenyl]furo[3,2-d}-pyrimidin-4-yl-methanol], for which the IC50 lay in the range of 0.5 to 5 µM.

Still in this assay, the particulars now being: cellular; HCT116 cells, 10 μM bleomycin, six hours; read-out: IC50 pDNA-PK.
On to `OC(c1cccnn1)c1cc(-c2ncnc3cc(N4CCOCC4)ccc23)c(F)cc1Cl` (stereo not shown) [Example 30, [2-Chloro-4-fluoro-5-(7-morpholin-4-yl-quinazolin-4-yl)phenyl]-pyridazin-3-ylmethanol], for which the IC50 is under 0.5 µM.

The same assay, now with this note: phospho-serine 2056 DNA-PK, bleomycin-treated HCT116 cells; read-out: IC50 pDNA-PK.
Regarding `COc1ccc(C(O)c2ccc(F)c(-c3ncnc4cc(N5CCOCC5)cc(F)c34)c2)nn1` (stereo not shown) [Example 260, [4-Fluoro-3-(5-fluoro-7-morpholin-4-yl-quinazolin-4-yl)-phenyl]-(6-methoxy-pyridazin-3-yl)-methanol], the IC50 was under 0.5 µM.
